Source: US11033550B2, “Medicament” (TAKEDA PHARMACEUTICAL COMPANY LIMITED, priority 2016, dated 2021)

Legend:
[1] = Non Patent Literature 7; cited from earlier work
[2] = system: monocrotaline-induced pulmonary hypertensive rat models; assay: Survival rate (Kaplan-Meier) in monocrotaline-induced pulmonary hypertensive rat models; type: in vivo; conditions: 1, 3 or 10 mg/kg orally once every day over 14 days from 14th day after MCT; result in words
Experimental: (§1) Monocrotaline (MCT) was subcutaneously injected at 50 mg/kg (in 50% dimethyl sulfoxide solution) to male Sprague-Dawley rats having a body weight of 230 g ± 10 g to prepare pulmonary hypertensive rat models. Compound A′ and the same amount of a vehicle were orally administered to a compound A′ administration group (dose: 1 mg/kg, 3 mg/kg, or 10 mg/kg) and a control group, respectively, once every day over 14 days from the 14th day after the MCT administration. This experiment was carried out using these groups each involving 12 rats. • (2) Effect on Survival Rate

[3] = system: monocrotaline-induced pulmonary hypertensive rat model; assay: Right ventricular pressure (RVP) by catheterization in monocrotaline-induced pulmonary hypertensive rat model; type: in vivo; conditions: for RVP: measured 28 days after MCT, mean
Experimental: as §1, with “250” for “230”, “10%” for “10 g”, “respectively,” for “respectively, once”, “9 rats (12 rats were used only in a vehicle control group).” for “12 rats.”, “Right Ventricular Pressure (RVP)” for “Survival Rate”
The right ventricular pressure (RVP) was measured by catheterization for the rats that survived at 28 days after MCT administration (negative control group (monocrotaline non-administered group), 9 rats; vehicle control group, 8 rats; compound A′ 1 mg/kg administration group, 9 rats; compound A′ 3 mg/kg administration group, 5 rats; compound A′ 10 mg/kg administration group, 9 rats; total 40 rats).

[4] = molecular target: T1, interaction between human NHE1 and human CHP1 (Homo sapiens, UniProt P19634+Q99653); assay: CHP1-NHE1 interaction, AlphaScreen protein interaction measurement system; type: binding
T1 construct: made in house; host or cells: NHE1: FreeStyle 293 cells (microsomal fraction); CHP1: wheat germ cell-free translation system
Experimental: The inhibitory activity of compound A′ on the interaction between human NHE1 and human CHP1 was evaluated in a protein interaction measurement system using an amplified luminescence proximity homogeneous assay (AlphaScreen™ (PerkinElmer)). A microsomal fraction of FLAG-tagged full-length human NHE1 (Accession No. NM 003047) was prepared by being expressed in human embryonic kidney cell-derived FreeStyle™ 293 cells. Also, biotinylated full-length human CHP1 (Accession No. NM 007236) was expressed in a wheat germ cell-free translation system and purified. The NHE1 microsomal fraction and CHP 1 were diluted with an assay buffer (25 mM Tris-HCl (pH 7.4), 137 mM NaCl, 2.7 mM KCl, 0.1% BSA, 1 mM DTT), and compound A′ was added thereto. Then, the mixture was added to an Alpha Plate-384 Shallow Well (Perkin Elmer) in an amount of 2 μL/well, and reacted at room temperature for 60 minutes. Acceptor Beads and Donor Beads accompanying an AlphaScreen FLAG(M2) Detection Kit (PerkinElmer) were added thereto each in an amount of 2 μL/well, and the mixture was reacted at room temperature for 60 minutes. Thereafter, the AlphaScreen signal intensity was measured using an EnSpire Multi-label reader (PerkinElmer). Different concentrations of compound A′ (concentration: 50.0 nM to 0.8 nM) were evaluated in this test system. • (2) Results

[5] = system: monocrotaline-induced pulmonary hypertensive rat model; assay: Pulmonary artery occlusion index (Elastica van Gieson staining) in monocrotaline-induced pulmonary hypertensive rat model; type: in vivo; conditions: for Pulmonary artery occlusion: 10 mg/kg orally, 28 days after MCT, twice medial wall thickness divided by artery diameter, mean
Experimental: as §1, with “250” for “230”, “10%” for “10 g”, “respectively,” for “respectively, once”, “9 rats (12 rats were used only in a vehicle control group).” for “12 rats.”, “Right Ventricular Pressure (RVP)” for “Survival Rate”
Concerning the pulmonary hypertensive rat models that survived at 28 days after MCT administration (negative control group (monocrotaline non-administered group), 9 rats; vehicle control group, 8 rats; compound A′ 10 mg/kg administration group, 9 rats), tissue specimens of pulmonary tissue sections were prepared from 5 rats per group (total 15 rats) by Elastica van Gieson staining method to measure occlusion of the pulmonary artery. A value obtained by dividing a value that is twice as much as the thickness of the pulmonary artery medial wall by the diameter of the pulmonary artery was used as an index of occlusion.

[6] = system: monocrotaline-induced pulmonary hypertensive rat model; assay: Right ventricular systolic pressure (RVSP) by catheterization in monocrotaline-induced pulmonary hypertensive rat model; type: in vivo; conditions: for RVSP: measured 28 days after MCT, mean
Experimental: as §1, with “250” for “230”, “10%” for “10 g”, “respectively,” for “respectively, once”, “9 rats (12 rats were used only in a vehicle control group).” for “12 rats.”, “Right Ventricular Pressure (RVP)” for “Survival Rate”
The right ventricular systolic pressure (RVSP) was measured by catheterization for the rats that survived at 28 days after MCT administration ((negative control group (monocrotaline non-administered group), 9 rats; vehicle control group, 8 rats; compound A′ 1 mg/kg administration group, 9 rats; compound A′ 3 mg/kg administration group, 5 rats; compound A′ 10 mg/kg administration group, 9 rats; total 40 rats)).

[7] = system: monocrotaline-induced pulmonary hypertensive rat model; assay: Pulmonary artery medial wall thickening (Elastica van Gieson staining) in monocrotaline-induced pulmonary hypertensive rat model; type: in vivo; conditions: for Thickness of pulmonary artery medial wall: 10 mg/kg orally, 28 days after MCT, mean
Experimental: as §1, with “250” for “230”, “10%” for “10 g”, “respectively,” for “respectively, once”, “9 rats (12 rats were used only in a vehicle control group).” for “12 rats.”, “Right Ventricular Pressure (RVP)” for “Survival Rate”
Concerning the pulmonary hypertensive rat models that survived at 28 days after MCT administration (negative control group (monocrotaline non-administered group), 9 rats; vehicle control group, 8 rats; compound A′ 10 mg/kg administration group, 9 rats), tissue specimens of pulmonary tissue sections were prepared from 5 rats per group (total 15 rats) by Elastica van Gieson staining method to measure the thickening of the medial wall of the pulmonary artery.

[8] = system: monocrotaline-induced pulmonary hypertensive rat model; assay: Right ventricular hypertrophy, RV/(LV+S), in monocrotaline-induced pulmonary hypertensive rat model; type: in vivo; conditions: for RV/(LV + S): 28 days after MCT, index for right cardiomegaly, mean
Experimental: as §1, with “250” for “230”, “10%” for “10 g”, “respectively,” for “respectively, once”, “9 rats (12 rats were used only in a vehicle control group).” for “12 rats.”, “Right Ventricular Pressure (RVP)” for “Survival Rate”
The right ventricle weight (RV), left ventricle weight (LV), and interventricular septum weight (S) were measured for pulmonary hypertensive rat models that survived at 28 days after MCT administration (negative control group (monocrotaline non-administered group), 9 rats; vehicle control group, 8 rats; compound A′ 1 mg/kg administration group, 9 rats; compound A′ 3 mg/kg administration group, 5 rats; compound A′ 10 mg/kg administration group, 9 rats; total 40 rats)), and RV/(LV+S) was determined as an index for right cardiomegaly.

[9] = molecular target: T2, calcium-sensing receptor (CaSR) (Homo sapiens, UniProt P41180); conditions: Non Patent Literature 6; cited from earlier work
T2 sequence (P41180 20-1078): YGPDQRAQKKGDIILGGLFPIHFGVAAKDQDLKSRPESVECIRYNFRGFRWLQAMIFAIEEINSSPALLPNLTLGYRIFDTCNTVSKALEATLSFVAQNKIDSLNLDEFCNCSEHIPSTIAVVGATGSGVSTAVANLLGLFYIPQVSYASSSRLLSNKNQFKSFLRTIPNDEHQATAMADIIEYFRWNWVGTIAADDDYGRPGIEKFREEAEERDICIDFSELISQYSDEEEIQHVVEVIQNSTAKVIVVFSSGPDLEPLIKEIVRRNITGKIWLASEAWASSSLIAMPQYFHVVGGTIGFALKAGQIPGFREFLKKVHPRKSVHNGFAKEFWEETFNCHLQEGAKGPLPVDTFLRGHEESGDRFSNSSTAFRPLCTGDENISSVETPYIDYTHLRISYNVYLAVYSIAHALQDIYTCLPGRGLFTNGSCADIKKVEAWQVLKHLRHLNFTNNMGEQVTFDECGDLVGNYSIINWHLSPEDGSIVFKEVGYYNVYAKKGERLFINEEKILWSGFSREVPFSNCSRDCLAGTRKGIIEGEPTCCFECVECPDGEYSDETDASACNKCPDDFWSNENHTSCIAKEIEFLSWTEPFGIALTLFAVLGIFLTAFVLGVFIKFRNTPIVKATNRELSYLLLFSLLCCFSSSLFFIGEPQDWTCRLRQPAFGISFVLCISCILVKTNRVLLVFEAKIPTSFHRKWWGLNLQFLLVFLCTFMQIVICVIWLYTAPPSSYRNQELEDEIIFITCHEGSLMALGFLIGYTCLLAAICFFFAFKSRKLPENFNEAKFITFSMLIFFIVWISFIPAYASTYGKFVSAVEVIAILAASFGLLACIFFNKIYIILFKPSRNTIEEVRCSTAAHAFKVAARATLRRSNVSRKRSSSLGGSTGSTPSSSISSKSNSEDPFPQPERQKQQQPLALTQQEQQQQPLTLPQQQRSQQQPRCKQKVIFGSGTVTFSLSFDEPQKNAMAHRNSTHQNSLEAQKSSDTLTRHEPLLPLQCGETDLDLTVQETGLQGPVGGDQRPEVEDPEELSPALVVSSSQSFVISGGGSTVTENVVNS

[10] = system: hypoxia-induced pulmonary hypertensive (HPH) mice; conditions: Non Patent Literatures 1 to 5; cited from earlier work
[11] = system: monocrotaline (MCT)-induced pulmonary hypertensive rats; conditions: Non Patent Literatures 1 to 5; cited from earlier work
[12] = 1 mg/kg orally every day over 14 days from 14th day after MCT
[13] = 3 mg/kg orally every day over 14 days from 14th day after MCT
[14] = 10 mg/kg orally every day over 14 days from 14th day after MCT
[15] = Diameter of pulmonary artery (<50 μM)

T1 sequence (P19634 whole entry): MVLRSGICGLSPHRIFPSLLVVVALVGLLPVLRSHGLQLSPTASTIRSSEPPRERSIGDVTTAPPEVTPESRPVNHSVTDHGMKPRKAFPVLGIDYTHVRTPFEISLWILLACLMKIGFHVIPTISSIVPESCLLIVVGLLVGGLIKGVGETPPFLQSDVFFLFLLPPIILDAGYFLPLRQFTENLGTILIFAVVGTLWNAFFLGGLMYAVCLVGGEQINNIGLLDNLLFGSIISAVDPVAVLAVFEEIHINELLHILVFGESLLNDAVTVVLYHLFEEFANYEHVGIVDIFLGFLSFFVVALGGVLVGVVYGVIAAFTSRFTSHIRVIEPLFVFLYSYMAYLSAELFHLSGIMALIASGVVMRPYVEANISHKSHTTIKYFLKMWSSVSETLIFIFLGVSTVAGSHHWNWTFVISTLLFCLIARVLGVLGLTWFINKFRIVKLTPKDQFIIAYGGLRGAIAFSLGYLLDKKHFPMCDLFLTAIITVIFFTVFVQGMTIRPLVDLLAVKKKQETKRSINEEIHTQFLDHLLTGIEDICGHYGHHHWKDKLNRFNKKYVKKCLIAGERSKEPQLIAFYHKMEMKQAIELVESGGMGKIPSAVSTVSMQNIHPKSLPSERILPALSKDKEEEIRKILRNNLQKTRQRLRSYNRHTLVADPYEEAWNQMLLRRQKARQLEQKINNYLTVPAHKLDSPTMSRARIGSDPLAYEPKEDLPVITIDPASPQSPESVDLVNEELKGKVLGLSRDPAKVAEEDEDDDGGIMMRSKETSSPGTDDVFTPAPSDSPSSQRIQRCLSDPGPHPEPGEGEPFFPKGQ
T1 sequence (Q99653 whole entry): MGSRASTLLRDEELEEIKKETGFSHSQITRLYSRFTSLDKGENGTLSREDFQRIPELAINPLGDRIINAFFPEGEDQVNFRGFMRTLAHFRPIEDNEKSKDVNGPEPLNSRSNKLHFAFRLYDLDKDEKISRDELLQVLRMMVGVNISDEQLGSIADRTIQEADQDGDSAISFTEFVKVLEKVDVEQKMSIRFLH

## C[C@@H](N[C@H]1CCCC[C@@H]1NC(=O)c1ccc(Cl)cc1)c1cccc2ccccc12 [Calhex 231]
[1]
  Effect on the action of an existing PAH drug (PDE 5 inhibitor/sildenafil): enhance the effect

## CCc1ccc(C(CC)(CC)NC(=O)c2c(C)nn3c2N[C@@H](c2ccccc2)CC3(C)C)cc1 [Compound A′, (5R)-N-[1-Ethyl-1-(4-ethylphenyl)propyl]-2,7,7-trimethyl-5-phenyl-4,5,6,7-tetrahydropyrazolo[1,5-a]pyrimidine-3-carboxamide]
[2]
  Effect on survival rate (Kaplan-Meier survival curve, FIG. 1): remarkably improved the survival rate
[3]; [12]
  RVP: 26.4 mmHg
[3]; [13]
  RVP: 22.4 mmHg
[3]; [14]
  RVP: 17.8 mmHg
[3]; at 28 days after MCT administration, summary of Table 1
  Effect on right ventricular pressure, in words: remarkably improved
[4]; AlphaScreen, FLAG-tagged human NHE1 microsomal fraction and biotinylated human CHP1, 50.0 nM to 0.8 nM tested, read-out: CHP1-NHE1 interaction activity (50% inhibitory concentration)
  IC50: 4.7 nM
[4]; summary of Table 6
  CHP1-NHE1 inhibitory activity, in words: remarkable CHP1-NHE1 inhibitory activity
[5]; [15]
  Pulmonary artery occlusion: 0.20
[5]; Diameter of pulmonary artery
  Pulmonary artery occlusion: 0.19
[5]; at 28 days after MCT administration, summary of Table 5
  Effect on occlusion of the pulmonary artery, in words: remarkably improved
[6]; [12]
  RVSP: 48.3 mmHg
[6]; [13]
  RVSP: 39.1 mmHg
[6]; [14]
  RVSP: 28.0 mmHg
[6]; at 28 days after MCT administration, summary of Table 2
  Effect on right ventricular systolic pressure (RVSP), in words: remarkably improved
[7]; Diameter of pulmonary artery (50 μM-100 μM)
  Thickness of pulmonary artery medial wall: 6.86
[7]; [15]
  Thickness of pulmonary artery medial wall: 4.28
[7]; at 28 days after MCT administration, summary of Table 4
  Effect on thickening of the pulmonary artery medial wall, in words: remarkably improved
[8]; [12]
  RV/(LV + S): 0.333
[8]; [13]
  RV/(LV + S): 0.307
[8]; [14]
  RV/(LV + S): 0.282
[8]; at 28 days after MCT administration, summary of Table 3
  Effect on right ventricular hypertrophy, in words: remarkably improved
[9]
  Activity at CaSR: CaSR antagonist

## CC(C)(Cc1ccc2ccccc2c1)NC[C@@H](O)COc1cccc(Cl)c1C#N [NPS-2143]
[1]
  Effect on the action of an existing PAH drug (PDE 5 inhibitor/sildenafil): enhance the effect
[10]
  Reported effects on pulmonary hypertension pathology: inhibit cardiac hypertrophy, a rise in right ventricular systolic pressure, myocardial tissue fibrosis, and pulmonary vascular remodeling
[11]
  Reported effects on pulmonary hypertension pathology: inhibit cardiac hypertrophy, a rise in right ventricular systolic pressure, myocardial tissue fibrosis, and pulmonary vascular remodeling
